Our source for the MIC and IC50 values is patent US8124744B2, “Macrolide derivatives” (Taisho Pharmaceutical Co., Ltd., priority 2006, dated 2012).

The MIC is the lowest concentration that inhibits growth of the organism. A lower MIC goes with a more susceptible organism. In general, IC50 refers to the point on the concentration scale where inhibition reaches its midpoint.

Each structure is given as a SMILES string. Some results are limits rather than exact numbers.

Experiment [1] deals with Staphylococcus aureus ATCC29213. The experiment in a line: Minimal inhibitory concentration (MIC). It is filed as cell-based. How it is done: (§1) To 7- to 9-week male C57BL/6J mice (purchased from CLEA Japan, Inc. or Japan SLC, Inc.), Zymosan A (SIGMA) derived from budding yeasts which is adjusted to be 1 mg/ml in a phosphate buffer solution (PBS, 10010-49, Invitrogen) was administered intraperitoneally at 1 ml per mouse to induce peritonitis. Three days later, filter-sterilized cell recovery buffer (2 mM EDTA, 0.5% bovine serum albumin, PBS, pH 7.4) was administered intraperitoneally at 5 ml per mouse to recover peritoneal exudata cells. The cells went through a cell strainer (70 μm nylon, FALCON) and were then washed twice with a Hanks solution (Invitrogen). The cells were suspended in 10% fetal calf serum-containing Dulbecco's modified Eagle's culture medium (Invitrogen). The suspension was seeded on a plate with 48 wells, after 6 hours, the culture medium was completely exchanged. After culturing for another 18 hours, test compounds were added at 0.02 to 20 μM of the final concentration. After 1 hour from the addition of the compounds, a tumor necrosis factor (TNF) α (R & D Systems) was added at 25 ng/ml of the final concentration, and 24 hours later, the culture supernatant was collected. The amount of pro MMP-9 protein in the supernatant was quantified by an enzyme-linked immunosorbent assay (ELISA) (R & D Systems), IC50 values of the test compounds on the increased amount by TNF α stimuli, were calculated by ORIGIN analysis software (trade name: OriginLab). In addition, minimal inhibitory concentration (MIC) of each test compounds (measured bacterium: Staphylococcus aureus ATCC29213) was measured. As a comparative agent […] A (clarithromycin) was used.

A further experiment concerns pro MMP-9 protein. The experiment in a line: Inhibitory activity against proMMP-9 protein production (TNF α-stimulated mouse peritoneal exudate cells, ELISA). It is filed as cell-based, C57BL/6J mice. Conditions: relative activity when the value of Comparative Agent 1 (IC50 = 10.04 ± 4.11 μM) is 10, on the increase of pro MMP-9 by TNF α 25 ng/ml, 24 hours, read-out: IC50 (μM)*. On the procedure: as §1

Take `CC[C@H]1OC(=O)[C@H](C)[C@@H](O[C@H]2C[C@@](C)(OC)[C@@H](OC(C)=O)[C@H](C)O2)[C@H](C)[C@@H](O[C@@H]2O[C@H](C)C[C@H](N(C)C)[C@H]2OCCCN(C)C)[C@@](C)(OC)C[C@@H](C)C(=O)[C@H](C)[C@@H](O)[C@]1(C)O` [Example 116, 4″-O-acetyl-2′-O-(3-dimethylaminopropyl)-6-O-methylerythromycin A]: the MIC in experiment [1] was above 128 µg/mL. Besides, the IC50 with pro MMP-9 protein worked out at 2.79 µM.
In the case of `CC[C@H]1OC(=O)[C@H](C)[C@@H](O[C@H]2C[C@@](C)(OC)[C@@H](O)[C@H](C)O2)[C@H](C)[C@@H](O[C@@H]2O[C@H](C)C[C@H](N(C)C)[C@H]2OCCCNS(C)(=O)=O)[C@@](C)(OC)C[C@@H](C)C(=O)[C@H](C)[C@@H](O)[C@]1(C)O` [Example 117, 2′-O-(3-methanesulfonylamidepropyl)-6-O-methylerythromycin A], the MIC in experiment [1] was above 128 µg/mL. Besides, in the experiment on pro MMP-9 protein, the IC50 turned out to be 3.55 µM.
In the same order, the values of `CC[C@H]1OC(=O)[C@H](C)[C@@H](O[C@H]2C[C@@](C)(OC)[C@@H](OC(C)=O)[C@H](C)O2)[C@H](C)[C@@H](O[C@@H]2O[C@H](C)C[C@H](N(C)C)[C@H]2OCCCN2CCOCC2)[C@@](C)(OC)C[C@@H](C)C(=O)[C@H](C)[C@@H](O)[C@]1(C)O` [Example 119, 4″-O-acetyl-2′-O-(3-(4-morpholino)propyl)-6-O-methylerythromycin A] are above 128 µg/mL and 4.42 µM.
With `CC[C@H]1OC(=O)[C@H](C)[C@@H](O[C@H]2C[C@@](C)(OC)[C@@H](OC(C)=O)[C@H](C)O2)[C@H](C)[C@@H](O[C@@H]2O[C@H](C)C[C@H](N(C)C)[C@H]2OCCCN2CCC(O)CC2)[C@@](C)(OC)C[C@@H](C)C(=O)[C@H](C)[C@@H](O)[C@]1(C)O` [Example 122, 4″-O-acetyl-2′-O-(3-(4-hydropiperidin-1-yl)propyl)-6-O-methylerythromycin A], the MIC in experiment [1] is above 128 µg/mL. In addition, in the experiment with pro MMP-9 protein, the IC50 was determined as 3.06 µM.
For the compound `CC[C@H]1OC(=O)[C@H](C)[C@@H](O[C@H]2C[C@@](C)(OC)[C@@H](O)[C@H](C)O2)[C@H](C)[C@@H](O[C@@H]2O[C@H](C)C[C@H](N(C)CCCOCc3ccccc3)[C@H]2OC)[C@@](C)(OC)C[C@@H](C)C(=O)[C@H](C)[C@@H](O)[C@]1(C)O` [Example 129, 3′-N-demethyl-3′-N-(3-benzyloxypropyl)-6,2′-di-O-methylerythromycin A], the MIC in experiment [1] was above 128 µg/mL. Moreover, the IC50 in the experiment on pro MMP-9 protein was below 1.04 µM.
The like results for `CC[C@H]1OC(=O)[C@H](C)[C@@H](O[C@H]2C[C@@](C)(OC)[C@@H](O)[C@H](C)O2)[C@H](C)[C@@H](O[C@@H]2O[C@H](C)C[C@H](N(C)CCCN(C)C)[C@H]2OC)[C@@](C)(OC)C[C@@H](C)C(=O)[C@H](C)[C@@H](O)[C@]1(C)O` [Example 130, 3′-N-demethyl-3′-N-(3-dimethylaminopropyl)-6,2′-di-O-methylerythromycin A] were, in that order, above 128 µg/mL and 1.33 µM.
As to `CC[C@H]1OC(=O)[C@H](C)[C@@H](O[C@H]2C[C@@](C)(OC)[C@@H](O)[C@H](C)O2)[C@H](C)[C@@H](O[C@@H]2O[C@H](C)C[C@H](N(C)CCCN3CCOCC3)[C@H]2OC)[C@@](C)(OC)C[C@@H](C)C(=O)[C@H](C)[C@@H](O)[C@]1(C)O` [Example 131, 3′-N-demethyl-3′-N-(3-(4-morpholino)propyl)-6,2′-di-O-methylerythromycin A], in experiment [1], the MIC was above 128 µg/mL. Also, the IC50 with pro MMP-9 protein was found to be 3.33 µM.
In turn, `CC[C@H]1OC(=O)[C@H](C)[C@@H](O[C@H]2C[C@@](C)(OC)[C@@H](O)[C@H](C)O2)[C@H](C)[C@@H](O[C@@H]2O[C@H](C)C[C@H](N(C)CCCO)[C@H]2OC)[C@@](C)(OC)C[C@@H](C)C(=O)[C@H](C)[C@@H](O)[C@]1(C)O` [Example 132, 3′-N-demethyl-3′-N-(3-hydroxypropyl)-6,2′-di-O-methylerythromycin A] returned an MIC in experiment [1] above 128 µg/mL. Besides, the IC50 in the experiment on pro MMP-9 protein came out at 2.52 µM.
The compound `CC[C@H]1OC(=O)[C@H](C)[C@@H](O[C@H]2C[C@@](C)(OC)[C@@H](OC(C)=O)[C@H](C)O2)[C@H](C)[C@@H](O[C@@H]2O[C@H](C)C[C@H](N(C)CCCOC(C)=O)[C@H]2OC)[C@@](C)(OC)C[C@@H](C)C(=O)[C@H](C)[C@@H](O)[C@]1(C)O` [Example 136, 4″-O-acetyl-3′-N-demethyl-3′-N-(3-acetoxypropyl)-6,2′-di-O-methylerythromycin A] displayed an MIC in experiment [1] above 128 µg/mL. The IC50 in the experiment with pro MMP-9 protein was found to be 2.12 µM.
The compound `CC[C@H]1OC(=O)[C@H](C)[C@@H](O[C@H]2C[C@@](C)(OC)[C@@H](O)[C@H](C)O2)[C@H](C)[C@@H](O[C@@H]2O[C@H](C)C[C@H](N)[C@H]2OC)[C@@](C)(OC)C[C@@H](C)C(=O)[C@H](C)[C@@H](O)[C@]1(C)O` [Example 138, 3′-N-dedimethyl-6,2′-di-O-methylerythromycin A] yielded an MIC in experiment [1] above 128 µg/mL. Further, the IC50 in the experiment on pro MMP-9 protein came to 3.95 µM.
The compound `CC[C@H]1OC(=O)[C@H](C)[C@@H](O[C@H]2C[C@@](C)(OC)[C@@H](O)[C@H](C)O2)[C@H](C)[C@@H](O[C@@H]2O[C@H](C)C[C@H](N3CCOCC3)[C@H]2OC)[C@@](C)(OC)C[C@@H](C)C(=O)[C@H](C)[C@@H](O)[C@]1(C)O` [Example 139, 3′-N-dedimethylamino-3-(4-morpholino)-6,2′-di-O-methylerythromycin A] returned an MIC in experiment [1] above 128 µg/mL. Besides, the IC50 in the experiment on pro MMP-9 protein is 5.51 µM.
The compound `CC[C@H]1OC(=O)[C@H](C)[C@@H](O[C@H]2C[C@@](C)(OC)[C@@H](O)[C@H](C)O2)[C@H](C)[C@@H](O[C@@H]2O[C@H](C)C[C@H](N(C)C)[C@H]2OC)[C@@](C)(OC)C[C@@H](C)[C@H](O)[C@H](C)[C@@H](O)[C@]1(C)O` [Example 141, 9-deoxo-9-(S)-hydroxy-6,2′-di-O-methylerythromycin A] displayed an MIC in experiment [1] above 128 µg/mL. Also, in the experiment with pro MMP-9 protein, the IC50 was determined as 2.18 µM.
The like results for `CC[C@H]1OC(=O)[C@H](C)[C@@H](O[C@H]2C[C@@](C)(OC)[C@@H](OC(C)=O)[C@H](C)O2)[C@H](C)[C@@H](O[C@@H]2O[C@H](C)C[C@H](N(C)C)[C@H]2OC)[C@@](C)(OC)C[C@@H](C)C(=O)[C@H](C)[C@H]2NC(=O)O[C@@]21C` [Example 148, 4″-O-acetyl-11-amino-11-deoxy-6,2′-di-O-methylerythromycin A 11,12-cyclic carbamate] were, in that order, above 128 µg/mL and 7.68 µM.
In experiment [1], `CC[C@H]1OC(=O)[C@H](C)C(=O)[C@H](C)[C@@H](O[C@@H]2O[C@H](C)C[C@H](N(C)C)[C@H]2OC)[C@@](C)(OC)C[C@@H](C)C(=O)[C@H](C)[C@@H](O)[C@]1(C)O` [Example 155, 3-deoxy-3-oxo-5-O-(2′-O-methyldesosaminyl)-6-O-methylerythronolide A] registered an MIC above 128 µg/mL. Besides, the half-inhibitory concentration (IC50) in the experiment with pro MMP-9 protein is 9.7 µM.
`CC[C@H]1OC(=O)[C@H](C)[C@@H](O[C@H]2C[C@@](C)(OC)[C@@H](OC(C)=O)[C@H](C)O2)[C@H](C)[C@@H](O[C@@H]2O[C@H](C)C[C@@H](N(C)CCCc3ccncc3)[C@@H]2N(C)C)[C@@](C)(OC)C[C@@H](C)C(=O)[C@H](C)[C@@H](O)[C@]1(C)O` [Example 162, 4″-O-acetyl-3′-N-demethyl-2′-deoxy-2′-dimethylamino-3′-N-(3-(4-pyridyl)propyl)-6-O-methylerythromycin A] yielded an MIC in experiment [1] above 128 µg/mL. Besides, the IC50 with pro MMP-9 protein was below 1.5 µM.
With `CC[C@H]1OC(=O)[C@H](C)[C@@H](O[C@H]2C[C@@](C)(OC)[C@@H](OC(C)=O)[C@H](C)O2)[C@H](C)[C@@H](O[C@@H]2O[C@H](C)C[C@@H](N3CCC(O)CC3)[C@@H]2N(C)C)[C@@](C)(OC)C[C@@H](C)C(=O)[C@H](C)[C@@H](O)[C@]1(C)O` [Example 164, 4″-O-acetyl-3′-dedimethylamino-2′-deoxy-2′-dimethylamino-3′-(4-hydroxypiperidin-1-yl)-6-O-methylerythromycin A], the minimal inhibitory concentration (MIC) in experiment [1] is above 128 µg/mL. The IC50 with pro MMP-9 protein is 2.77 µM.
With `CC[C@H]1OC(=O)[C@H](C)[C@@H](O[C@H]2C[C@@](C)(OC)[C@@H](O)[C@H](C)O2)[C@H](C)[C@@H](O[C@@H]2O[C@H](C)C[C@@H](N3CCN(CCN(C)C)CC3)[C@@H]2N(C)C)[C@@](C)(OC)C[C@@H](C)C(=O)[C@H](C)[C@@H](O)[C@]1(C)O` [Example 169, 3′-dedimethylamino-2′-deoxy-2′-dimethylamino-3′-(4-(2-dimethylaminoethyl)piperazin-1-yl)-6-O-methylerythromycin A], the minimum inhibitory concentration (MIC) in experiment [1] was above 128 µg/mL. Moreover, in the experiment on pro MMP-9 protein, the IC50 worked out at 2.89 µM.
In experiment [1], `CC[C@H]1OC(=O)[C@H](C)[C@@H](O[C@H]2C[C@@](C)(OC)[C@@H](OC(C)=O)[C@H](C)O2)[C@H](C)[C@@H](O[C@@H]2O[C@H](C)C[C@@H](N(C)Cc3ccccc3)[C@@H]2N(C)C)[C@@](C)(OC)C[C@@H](C)C(=O)[C@H](C)[C@@H](O)[C@]1(C)O` [Example 170, 4″-O-acetyl-3′-N-demethyl-2′-deoxy-2′-dimethylamino-3′-N-benzyl-6-O-methylerythromycin A] had an MIC above 128 µg/mL. The IC50 with pro MMP-9 protein came to 1.01 µM.
